Laboratory results as given in ChEMBL document CHEMBL3046099, “Effect of reduced risk pesticides on greenhouse vegetable arthropod biological control agents” (2011).

Assays:
Eretmocerus eremicus [1] = assay: Toxicity in Eretmocerus eremicus infested green bean leaves assessed as mortality at 2 times of recommended rate at 48 hr by leaf dip method (reference value: 10%); format: functional
Eretmocerus eremicus [2] = assay: Toxicity in Eretmocerus eremicus infested green bean leaves assessed as mortality at recommended rate at 48 hr by leaf dip method (reference value: 10%); format: functional
Amblyseius swirskii [3] = assay: Toxicity in Typhlodromips swirskii infested green bean leaves assessed as mortality at recommended rate at 48 hr by leaf dip method (reference value: 10%); format: functional
Amblyseius swirskii [4] = assay: Toxicity in Typhlodromips swirskii infested green bean leaves assessed as mortality at 2 times recommended rate at 48 hr by leaf dip method (reference value: 10%); format: functional
Orius insidiosus [5] = assay: Toxicity in Orius insidiosus infested green bean leaves assessed as mortality at 2 times recommended rate at 48 hr by leaf dip method (reference value: 20%); format: functional
Orius insidiosus [6] = assay: Toxicity in Orius insidiosus infested green bean leaves assessed as mortality at recommended rate at 48 hr by leaf dip method (reference value: 20%); format: functional
Eretmocerus eremicus [7] = assay: Toxicity in Eretmocerus eremicus infested cucumber leaves assessed as mortality at recommended rate after 15 days under green house condition (reference value: 30%); format: functional, organism-based

Compound	mortality (Eretmocerus eremicus [1])	mortality (Eretmocerus eremicus [2])	mortality (Amblyseius swirskii [3])	mortality (Amblyseius swirskii [4])	mortality (Orius insidiosus [5])	mortality (Orius insidiosus [6])	mortality (Eretmocerus eremicus [7])
CNC(=O)c1cc(Cl)cc(C)c1NC(=O)c1cc(Br)nn1-c1ncccc1Cl [CHLORANTRANILIPROLE]	0%	0%	15.8%	14.3%	16%	8%	–
CCCCC(C#N)(Cn1cncn1)c1ccc(Cl)cc1 (stereo not given) [MYCLOBUTANIL]	5.3%	5%	7.5%	17%	–	–	–
O=C([O-])O.[K+] [POTASSIUM BICARBONATE]	2.5%	2.5%	19.8%	8.8%	–	–	–
METAFLUMIZONE	0%	0%	14.5%	8.8%	–	69%	4.4%
